molecular target: T1, human RORγt (Homo sapiens, UniProt P51449); experiment: RORE Luciferase/RORγt transactivation assay; format: cell-based; conditions: COS-7 cells transfected with human IL-17 promoter luciferase reporter and RORγt plasmid; 20 h with compound; read-out: IC50, RORγt activity inhibition
T1 construct: the full-length cDNA of human RORγt; expressed in transfected cells; host or cells: COS-7 (monkey kidney)
T1 sequence (P51449 1-497 isoform P51449-2): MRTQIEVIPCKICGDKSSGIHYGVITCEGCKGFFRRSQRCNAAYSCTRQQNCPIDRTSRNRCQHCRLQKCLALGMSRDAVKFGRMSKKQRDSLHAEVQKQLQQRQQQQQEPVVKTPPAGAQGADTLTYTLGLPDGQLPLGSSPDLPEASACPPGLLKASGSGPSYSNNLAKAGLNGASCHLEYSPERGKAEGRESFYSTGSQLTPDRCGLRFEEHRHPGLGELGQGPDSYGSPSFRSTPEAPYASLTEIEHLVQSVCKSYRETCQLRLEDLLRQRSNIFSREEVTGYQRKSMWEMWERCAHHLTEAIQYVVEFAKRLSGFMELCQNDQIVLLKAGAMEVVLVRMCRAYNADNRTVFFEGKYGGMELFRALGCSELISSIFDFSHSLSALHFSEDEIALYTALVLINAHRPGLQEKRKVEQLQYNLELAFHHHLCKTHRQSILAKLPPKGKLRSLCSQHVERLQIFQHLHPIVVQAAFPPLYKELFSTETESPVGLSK
Protocol: It is well known that RORγ binds to a conserved non-coding sequence (CNS) enhancer element in the IL-17 promoter.
Culture medium was changed every 2 days.
The 4.3 Kb human IL-17 promoter containing the RORγ-specific CNS enhancer element was PCR amplified from human genomic DNA and cloned into a pGL3-TKLuc2Cp reporter plasmid.
The luciferase reporter plasmid and the RORγt overexpression plasmid were transfected into COS-7 cell line using 4 μLJetPEI™/μg of DNA. Briefly, 150 ng of DNA (ration ½ between RORE-Tk Luc2Cp and cDNA RORγt or the empty vector for the negative control) was served to transfect adherent COS-7 cells in a […] culture flask, in complete medium (see cos-7 cell line culture).
Cells were then detached (using trypsin) and washed by centrifugation at 300 g for 10 minutes. Cell pellet was resuspended in serum free/phenol red free DMEM and seeded in 384 well plates at a density of 10000 cells/well and then incubated for 4 h at 37° C.
Compounds were dissolved in 100% DMSO to obtain 10 mM stock solutions. For each compound, test concentrations were diluted in serum free/phenol red free DMEM using the Genesis Freedom 200™ (TECAN) and added to the cells to obtain a 0.3% DMSO final concentration (in a final volume of 40 μL per well).
The luciferase activity was then measured with 40 μL/well steady-Glo Luciferase assay system (Promega, Madison, Wis.) and after incubation at room temperature for 30 minutes. The luminescence was estimated using the Ultra384 reader (TECAN). Data were collected and analyzed using GraphPad Prism software (GraphPad Software V5.02, San Diego Calif. USA). IC50 in μM and Emax in % were reported for each compound.

| Compound | IC50 [nM] |
| --- | --- |
| Cc1ccc(C(NC(=O)Cc2ccc3c(c2)CC(=O)N3)c2ccc(C)o2)c(C)c1 (stereo not shown) [Cpd. 29, N-[(2,4-dimethylphenyl)(5-methylfuran-2-yl)methyl]-2-(2-oxo-2,3-dihydro-1H-indol-5-yl)acetamide] | 1000 to 10000 |
| Cc1ccc(C(NC(=O)C2(c3ccc4c(c3)OCO4)CC2)c2ccc(C)o2)c(C)c1 (stereo not shown) [Cpd. 137, 1-(2H-1,3-benzodioxol-5-yl)-N-[(2,4-dimethylphenyl)(5-methylfuran-2-yl)methyl]cyclopropane-1-carboxamide] | 10 to 100 |
| Cc1ccc(C(NC(=O)Cc2ccc3c(c2)CCC3=O)c2ccc(C)o2)c(N2CCCCC2)c1 (stereo not shown) [Cpd. 51, N-{[4-methyl-2-(piperidin-1-yl)phenyl](5-methylfuran-2-yl)methyl}-2-(1-oxo-2,3-dihydro-1H-inden-5-yl)acetamide] | 100 to 1000 |
| Cc1ccc(C(NC(=O)C2(c3ccc4c(c3)CS(=O)(=O)N4CC3CCOCC3)CC2)c2ccc(C)o2)c(N2CCCCC2)c1 (stereo not shown) [Cpd. 162, N-{[4-methyl-2-(piperidin-1-yl)phenyl](5-methylfuran-2-yl)methyl}-1-[1-(oxan-4-ylmethyl)-2,2-dioxo-1,3-dihydro-2,1-benzothiazol-5-yl]cyclopropane-1-carboxamide] | 10 to 100 |
| Cc1ccc(C(NC(=O)C2(c3ccc4c(c3)OCC(=O)N4)CC2)c2ccc(Cl)o2)c(N2CCCCC2)c1 (stereo not shown) [Cpd. 145, N-[(5-chlorofuran-2-yl)[4-methyl-2-(piperidin-1-yl)phenyl]methyl]-1-(3-oxo-3,4-dihydro-2H-1,4-benzoxazin-7-yl)cyclopropane-1-carboxamide] | 10 to 100 |
| Cc1ccc(C(NC(=O)C2(c3ccc4c(c3)CS(=O)(=O)N4CC3CCOCC3)CC2)c2ccc(C)o2)c(C)c1 (stereo not shown) [Cpd. 157, N-[(2,4-dimethylphenyl)(5-methylfuran-2-yl)methyl]-1-[1-(oxan-4-ylmethyl)-2,2-dioxo-1,3-dihydro-2,1-benzothiazol-5-yl]cyclopropane-1-carboxamide] | < 10 |
| Cc1ccc(C(NC(=O)Cc2ccc3c(c2)C(O)C(=O)N3)c2ccc(C)o2)c(N2CCCCC2)c1 (stereo not shown) [Cpd. 46, 2-(3-hydroxy-2-oxo-2,3-dihydro-1H-indol-5-yl)-N-{[4-methyl-2-(piperidin-1-yl)phenyl](5-methylfuran-2-yl)methyl}acetamide] | 100 to 1000 |
| Cc1ccc(C(NC(=O)Cc2ccc3c(c2)CS(=O)(=O)N3CC2CCOCC2)c2ccc(C)o2)c(N2CCCCC2)c1 (stereo not shown) [Cpd. 167, N-{[4-methyl-2-(piperidin-1-yl)phenyl](5-methylfuran-2-yl)methyl}-2-[1-(oxan-4-ylmethyl)-2,2-dioxo-1,3-dihydro-2,1-benzothiazol-5-yl]acetamide] | 10 to 100 |
| Cc1ccc(C(NC(=O)C2(c3ccc4c(c3)OCS(=O)(=O)N4)CC2)c2ccc(C)o2)c(C(F)(F)F)c1 (stereo not shown) [Cpd. 171, 1-(2,2-dioxo-1,3-dihydro-4,2,1-benzoxathiazin-6-yl)-N-{[4-methyl-2-(trifluoromethyl)phenyl](5-methylfuran-2-yl)methyl}cyclopropane-1-carboxamide] | 10 to 100 |
| Cc1ccc(C(NC(=O)C2(c3ccc4c(c3)OCO4)CC2)c2ccc(C)o2)c(Br)c1 (stereo not shown) [Cpd. 161, 1-(2H-1,3-benzodioxol-5-yl)-N-[(2-bromo-4-methylphenyl)(5-methylfuran-2-yl)methyl]cyclopropane-1-carboxamide] | 100 to 1000 |
| Cc1ccc(C(NC(=O)Cc2ccc3c(c2)CCN3C(=O)C2CC2)c2ccc(C)o2)c(N2CCCCC2)c1 (stereo not shown) [Cpd. 123, 2-(1-cyclopropanecarbonyl-2,3-dihydro-1H-indol-5-yl)-N-{[4-methyl-2-(piperidin-1-yl)phenyl](5-methylfuran-2-yl)methyl}acetamide] | < 10 |
| CC(C)=C1C(=O)Nc2ccc(CC(=O)NC(c3ccc(C)o3)c3ccc(C)cc3N3CCCCC3)cc21 (stereo not shown) [Cpd. 55, N-{[4-methyl-2-(piperidin-1-yl)phenyl](5-methylfuran-2-yl)methyl}-2-[2-oxo-3-(propan-2-ylidene)-2,3-dihydro-1H-indol-5-yl]acetamide] | 100 to 1000 |
| Cc1ccc(C(NC(=O)C2(c3ccc4c(ccn4CCO)c3)CC2)c2ccc(C)o2)c(C)c1 (stereo not shown) [Cpd. 69, N-[(2,4-dimethylphenyl)(5-methylfuran-2-yl)methyl]-1-[1-(2-hydroxyethyl)-1H-indol-5-yl]cyclopropane-1-carboxamide] | 10 to 100 |
| Cc1ccc(C(NC(=O)C2(c3ccc4c(c3)CCN4C(=O)C3CC3)CC2)c2ccc(C)o2)c(C)c1 (stereo not shown) [Cpd. 95, 1-(1-cyclopropanecarbonyl-2,3-dihydro-1H-indol-5-yl)-N-[(2,4-dimethylphenyl)(5-methylfuran-2-yl)methyl]cyclopropane-1-carboxamide] | 10 to 100 |
| Cc1ccc(C(NC(=O)C2(c3ccc4[nH]cc(C(C)(C)CO)c4c3)CC2)c2ccc(C)o2)c(C)c1 (stereo not shown) [Cpd. 170, N-[(2,4-dimethylphenyl)(5-methylfuran-2-yl)methyl]-1-[3-(1-hydroxy-2-methylpropan-2-yl)-1H-indol-5-yl]cyclopropane-1-carboxamide] | 10 to 100 |
| Cc1ccc(C(NC(=O)Cc2ccc3c(ccn3CC3CCOCC3)c2)c2ccc(C)o2)c(N2CCCCC2)c1 (stereo not shown) [Cpd. 113, N-{[4-methyl-2-(piperidin-1-yl)phenyl](5-methylfuran-2-yl)methyl}-2-[1-(oxan-4-ylmethyl)-1H-indol-5-yl]acetamide] | 10 to 100 |
| Cc1ccc(C(NC(=O)C2(c3ccc4c(c3)CS(=O)(=O)N4C)CC2)c2ccc(Cl)o2)c(C)c1 (stereo not shown) [Cpd. 160, N-[(5-chlorofuran-2-yl)(2,4-dimethylphenyl)methyl]-1-(1-methyl-2,2-dioxo-1,3-dihydro-2,1-benzothiazol-5-yl)cyclopropane-1-carboxamide] | 10 to 100 |
| Cc1ccc(C(NC(=O)Cc2ccc3c(c2)C(=O)CC3)c2ccc(C)o2)c(N2CCCCC2)c1 (stereo not shown) [Cpd. 67, N-{[4-methyl-2-(piperidin-1-yl)phenyl](5-methylfuran-2-yl)methyl}-2-(3-oxo-2,3-dihydro-1H-inden-5-yl)acetamide] | 100 to 1000 |
| Cc1ccc(C(NC(=O)C2(c3ccc4c(c3)OCS(=O)(=O)N4)CC2)c2ccc(C)o2)c(Br)c1 (stereo not shown) [Cpd. 131, N-[(2-bromo-4-methylphenyl)(5-methylfuran-2-yl)methyl]-1-(2,2-dioxo-1,3-dihydro-4,2,1-benzoxathiazin-6-yl)cyclopropane-1-carboxamide] | 10 to 100 |
| Cc1ccc(C(NC(=O)C2(c3ccc4c(c3)C(C)(C)C(=O)N4)CC2)c2ccc(C)o2)c(C)c1 (stereo not shown) [Cpd. 146, 1-(3,3-dimethyl-2-oxo-2,3-dihydro-1H-indol-5-yl)-N-[(2,4-dimethylphenyl)(5-methylfuran-2-yl)methyl]cyclopropane-1-carboxamide] | 10 to 100 |
| Cc1ccc(C(NC(=O)Cc2ccc3c(c2)C(O)CC3)c2ccc(C)o2)c(N2CCCCC2)c1 (stereo not shown) [Cpd. 85, 2-(3-hydroxy-2,3-dihydro-1H-inden-5-yl)-N-{[4-methyl-2-(piperidin-1-yl)phenyl](5-methylfuran-2-yl)methyl}acetamide] | 10 to 100 |
| Cc1ccc(C(NC(=O)C2(c3ccc4c(ccn4CCC(=O)O)c3)CC2)c2ccc(C)o2)c(C)c1 (stereo not shown) [Cpd. 152, 3-[5-(1-{[(2,4-dimethylphenyl)(5-methylfuran-2-yl)methyl]carbamoyl}cyclopropyl)-1H-indol-1-yl]propanoic acid] | 10 to 100 |
| O=C1Cc2cc(CC(=O)NC(c3ccccc3)c3ccccc3N3CCOCC3)ccc2N1 (stereo not shown) [Cpd. 17, N-{[2-(morpholin-4-yl)phenyl](phenyl)methyl}-2-(2-oxo-2,3-dihydro-1H-indol-5-yl)acetamide] | 1000 to 10000 |
| Cc1cnc(C(NC(=O)C2(c3ccc4c(c3)OCS(=O)(=O)N4)CC2)c2ccc(C)o2)c(C)c1 (stereo not shown) [Cpd. 153, N-[(3,5-dimethylpyridin-2-yl)(5-methylfuran-2-yl)methyl]-1-(2,2-dioxo-1,3-dihydro-4,2,1-benzoxathiazin-6-yl)cyclopropane-1-carboxamide] | 100 to 1000 |
| CC(C)CC(NC(=O)Cc1ccc2c(c1)OCC(=O)N2)c1ccccc1N1CCCCC1 (stereo not shown) [Cpd. 6, N-{3-methyl-1-[2-(piperidin-1-yl)phenyl]butyl}-2-(3-oxo-3,4-dihydro-2H-1,4-benzoxazin-7-yl)acetamide] | 1000 to 10000 |

Source: patent publication US11052092B2, “N-{[2-(piperidin-1-yl)phenyl](phenyl)methyl}-2-(3-oxo-3,4-dihydro-2H-1,4-benzoxazin-7-yl)acetamide derivatives and related compounds as ROR-gamma modulators for treating autoimmune diseases” (Genfit, priority 2017, dated 2021)
